# According to ChEMBL document CHEMBL5042497, “Design, synthesis, and biological evaluation of carbamate derivatives of N-salicyloyl tryptamine as multifunctional agents for the treatment of Alzheimer's disease” (Eur J Med Chem, 2022):
# Active and inactive are the calls of the source. The rule behind the calls is not given here.
# What was measured:
# Cholinesterase [1] = biological target: Cholinesterase (Equus caballus, UniProt P81908); test: Inhibition of equine serum BChE using butyrylthiocholine iodide as substrate preincubated for 10 mins followed by substrate addition and measured after 15 mins by Ellman's method
# Cholinesterase (Equus caballus, UniProt P81908), sequence (P81908 whole entry): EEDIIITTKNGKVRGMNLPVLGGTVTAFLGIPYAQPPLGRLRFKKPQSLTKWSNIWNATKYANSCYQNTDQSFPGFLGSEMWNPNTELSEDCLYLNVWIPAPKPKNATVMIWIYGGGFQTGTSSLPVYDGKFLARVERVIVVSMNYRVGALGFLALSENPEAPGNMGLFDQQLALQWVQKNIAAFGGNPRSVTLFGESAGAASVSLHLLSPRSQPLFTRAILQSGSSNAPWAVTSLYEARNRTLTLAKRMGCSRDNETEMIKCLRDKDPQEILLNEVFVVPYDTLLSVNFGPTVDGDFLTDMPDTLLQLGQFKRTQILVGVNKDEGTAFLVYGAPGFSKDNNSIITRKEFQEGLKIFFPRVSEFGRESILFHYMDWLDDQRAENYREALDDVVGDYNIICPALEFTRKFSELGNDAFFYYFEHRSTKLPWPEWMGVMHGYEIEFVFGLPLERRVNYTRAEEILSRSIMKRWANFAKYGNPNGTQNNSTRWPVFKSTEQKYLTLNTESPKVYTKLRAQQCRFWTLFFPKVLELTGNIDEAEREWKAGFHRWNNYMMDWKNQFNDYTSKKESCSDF
# Acetylcholinesterase [2] = biological target: Acetylcholinesterase (Electrophorus electricus, UniProt O42275); test: Inhibition of electric eel AChE using acetylthiocholine iodide as substrate preincubated for 10 mins followed by substrate addition and measured for 15 mins by Ellman's method
# Acetylcholinesterase (Electrophorus electricus, UniProt O42275), sequence (O42275 whole entry): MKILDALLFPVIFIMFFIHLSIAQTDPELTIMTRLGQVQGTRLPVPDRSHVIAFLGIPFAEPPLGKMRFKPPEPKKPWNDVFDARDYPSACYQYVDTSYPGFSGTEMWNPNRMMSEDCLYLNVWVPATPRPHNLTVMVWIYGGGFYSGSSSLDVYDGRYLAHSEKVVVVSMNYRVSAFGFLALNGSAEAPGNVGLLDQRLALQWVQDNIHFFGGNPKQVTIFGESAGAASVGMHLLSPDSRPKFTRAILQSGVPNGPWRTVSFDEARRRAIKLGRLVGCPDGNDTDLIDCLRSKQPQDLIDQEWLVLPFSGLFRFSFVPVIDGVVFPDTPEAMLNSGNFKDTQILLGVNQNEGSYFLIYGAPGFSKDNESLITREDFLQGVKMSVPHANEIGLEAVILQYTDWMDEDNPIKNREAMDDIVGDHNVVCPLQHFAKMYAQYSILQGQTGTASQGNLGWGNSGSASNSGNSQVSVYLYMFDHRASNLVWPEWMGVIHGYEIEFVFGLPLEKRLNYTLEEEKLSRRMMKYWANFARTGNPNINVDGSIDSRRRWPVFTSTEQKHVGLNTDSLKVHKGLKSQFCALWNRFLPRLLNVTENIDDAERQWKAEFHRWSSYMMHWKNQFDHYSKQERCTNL
# BV-2 [3] = test: cells; format: functional, cell-based; conditions: Mus musculus, BV-2, 24 h
# Description: Cytotoxicity against mouse BV-2 cells assessed as reduction in cell viability measured after 24 hrs by MTT assay
# HT-22 = test: cells; format: functional, cell-based; conditions: Mus musculus, HT-22, 24 h
# Description: Cytotoxicity against mouse HT-22 cells assessed as reduction in cell viability measured after 24 hrs by MTT assay
# [4] = biological target: Amyloid-beta precursor protein (Homo sapiens) (UniProt P05067); test: Inhibition of amyloid beta (1 to 42 ) (unknown origin) aggregation at 20 umol/L incubated for 24 hrs by thioflavin-T fluorescence method relative to control; conditions: dose 20.0 µmol/L
# Amyloid-beta precursor protein (Homo sapiens), sequence (P05067 whole entry): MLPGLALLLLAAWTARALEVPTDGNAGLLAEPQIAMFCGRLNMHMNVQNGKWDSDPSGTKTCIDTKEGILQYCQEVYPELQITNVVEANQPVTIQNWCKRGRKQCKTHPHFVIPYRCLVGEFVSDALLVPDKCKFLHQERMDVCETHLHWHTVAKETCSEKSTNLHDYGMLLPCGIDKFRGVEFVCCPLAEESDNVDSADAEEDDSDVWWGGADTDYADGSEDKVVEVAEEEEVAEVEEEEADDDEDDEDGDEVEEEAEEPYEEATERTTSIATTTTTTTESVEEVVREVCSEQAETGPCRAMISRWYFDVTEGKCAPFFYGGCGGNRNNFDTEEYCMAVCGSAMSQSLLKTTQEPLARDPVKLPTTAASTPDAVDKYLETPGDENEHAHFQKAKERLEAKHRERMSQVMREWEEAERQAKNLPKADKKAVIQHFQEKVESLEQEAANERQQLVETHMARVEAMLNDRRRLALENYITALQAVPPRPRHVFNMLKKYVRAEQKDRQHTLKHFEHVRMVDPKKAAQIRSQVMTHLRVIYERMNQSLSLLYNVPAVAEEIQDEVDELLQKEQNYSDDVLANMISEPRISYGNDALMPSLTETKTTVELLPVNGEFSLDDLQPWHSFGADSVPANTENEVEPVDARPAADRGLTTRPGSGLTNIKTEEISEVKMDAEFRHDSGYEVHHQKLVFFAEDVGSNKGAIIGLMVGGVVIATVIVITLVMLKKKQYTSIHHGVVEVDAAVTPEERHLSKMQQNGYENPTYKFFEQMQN
# Acetylcholinesterase [5] = biological target: Acetylcholinesterase (Homo sapiens, UniProt P22303); test: Inhibition of AChE (unknown origin)
# Acetylcholinesterase (Homo sapiens, UniProt P22303), sequence (P22303 whole entry): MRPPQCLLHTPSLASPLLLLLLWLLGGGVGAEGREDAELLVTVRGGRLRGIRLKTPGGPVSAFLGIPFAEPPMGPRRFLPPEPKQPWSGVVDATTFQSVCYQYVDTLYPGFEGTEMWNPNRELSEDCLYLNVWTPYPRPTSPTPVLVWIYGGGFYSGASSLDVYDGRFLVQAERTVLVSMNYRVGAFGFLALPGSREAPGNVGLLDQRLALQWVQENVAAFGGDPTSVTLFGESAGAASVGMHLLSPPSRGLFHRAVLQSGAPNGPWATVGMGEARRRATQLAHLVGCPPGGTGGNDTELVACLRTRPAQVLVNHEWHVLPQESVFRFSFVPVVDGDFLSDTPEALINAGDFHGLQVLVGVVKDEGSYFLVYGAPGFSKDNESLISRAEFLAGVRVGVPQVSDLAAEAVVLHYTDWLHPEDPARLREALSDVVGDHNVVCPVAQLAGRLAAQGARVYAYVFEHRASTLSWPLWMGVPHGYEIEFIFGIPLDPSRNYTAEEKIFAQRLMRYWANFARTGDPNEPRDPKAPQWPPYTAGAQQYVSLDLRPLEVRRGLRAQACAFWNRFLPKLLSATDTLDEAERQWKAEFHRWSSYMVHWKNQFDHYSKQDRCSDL
# Cholinesterase [6] = biological target: Cholinesterase (Homo sapiens, UniProt P06276); test: Inhibition of BuChE (unknown origin)
# Cholinesterase (Homo sapiens, UniProt P06276), sequence (P06276 whole entry): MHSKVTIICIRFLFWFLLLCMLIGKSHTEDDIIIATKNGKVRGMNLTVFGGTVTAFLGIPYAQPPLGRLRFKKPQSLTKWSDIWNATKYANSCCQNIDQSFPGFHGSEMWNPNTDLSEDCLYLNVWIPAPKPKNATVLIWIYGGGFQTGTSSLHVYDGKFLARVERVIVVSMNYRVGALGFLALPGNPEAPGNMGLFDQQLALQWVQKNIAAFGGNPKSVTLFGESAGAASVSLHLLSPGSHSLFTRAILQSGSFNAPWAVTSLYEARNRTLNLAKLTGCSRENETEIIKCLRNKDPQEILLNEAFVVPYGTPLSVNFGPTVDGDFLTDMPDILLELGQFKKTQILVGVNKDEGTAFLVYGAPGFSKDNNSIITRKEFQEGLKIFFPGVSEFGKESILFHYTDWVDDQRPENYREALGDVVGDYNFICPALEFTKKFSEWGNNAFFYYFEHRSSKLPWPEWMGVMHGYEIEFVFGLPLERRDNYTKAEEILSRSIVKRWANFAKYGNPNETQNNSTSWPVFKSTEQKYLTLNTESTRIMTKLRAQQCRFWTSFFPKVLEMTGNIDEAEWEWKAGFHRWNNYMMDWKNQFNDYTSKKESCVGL
# BV-2 [7] = test: Anti-neuroinflammation in mouse BV-2 cells assessed as decrease in LPS-induced IL-6 production at 12.5 umol/L measured after 24 hrs by ELISA; format: functional, cell-based; conditions: dose 12.5 µmol/L
# BV-2 [8] = test: Anti-neuroinflammation in mouse BV-2 cells assessed as inhibition of LPS-induced NO production at 100 to 3.125 umol/L measured after 24 hrs by Griess method; format: functional, cell-based; conditions: dose 100-3.125 µmol/L
# Mus musculus [9] = test: Anti-alzheimer activity against scopolamine-induced cognitive dysfunction mouse model assessed as […] of AChE activity in hippocampus at 50 to 100 mg/kg, po dosed for 10 days by colorimetric analysis; format: functional, organism-based; conditions: dose 50-100 mg/kg, time 10.0 day
# Mus musculus [10] = test: Anti-alzheimer activity against scopolamine-induced cognitive dysfunction mouse model assessed as change in neuron damage in hippocampal CA1 region at 50 to 100 mg/kg, po measured after 10 days by Nissl staining based assay; format: functional, organism-based; conditions: Hippocampus, dose 50-100 mg/kg, time 10.0 day
# Mus musculus [11] = test: Anti-alzheimer activity against scopolamine-induced cognitive dysfunction mouse model assessed as change in neuron damage in hippocampal CA3 region at 50 to 100 mg/kg, po measured after 10 days by Nissl staining based assay; format: functional, organism-based; conditions: Hippocampus, dose 50-100 mg/kg, time 10.0 day
# BV-2 [12] = test: Anti-neuroinflammation in mouse BV-2 cells assessed as decrease in LPS-induced TNF-alpha production at 12.5 umol/L measured after 24 hrs by ELISA; format: functional, cell-based; conditions: dose 12.5 µmol/L
# BV-2 [13] = test: Anti-neuroinflammation in mouse BV-2 cells assessed as decrease in LPS-induced iNOS activity at 12.5 umol/L by fluorescence based assay; format: functional, cell-based; conditions: dose 12.5 µmol/L
# BV-2 [14] = test: Anti-neuroinflammation in mouse BV-2 cells assessed as decrease in LPS-induced IL-6 production at 1.25 umol/L measured after 24 hrs by ELISA; format: functional, cell-based; conditions: dose 1.25 µmol/L
# BV-2 [15] = test: Anti-neuroinflammation in mouse BV-2 cells assessed as decrease in LPS-induced TNF-alpha production at 1.25 umol/L measured after 24 hrs by ELISA; format: functional, cell-based; conditions: dose 1.25 µmol/L
# BV-2 [16] = test: Anti-neuroinflammation in mouse BV-2 cells assessed as decrease in LPS-induced iNOS activity at 1.25 umol/L by fluorescence based assay; format: functional, cell-based; conditions: dose 1.25 µmol/L
# Mus musculus [17] = test: Anti-alzheimer activity against scopolamine-induced cognitive dysfunction mouse model assessed as […] of AChE activity in hippocampus at 5 mg/kg, po measured after 10 days by colorimetric analysis; format: functional, organism-based; conditions: time 10.0 day
# Mus musculus [18] = test: Anti-alzheimer activity against scopolamine-induced cognitive dysfunction mouse model assessed as change in neuron damage in hippocampal CA1 region at 5 mg/kg, po measured after 10 days by Nissl staining based assay; format: functional, organism-based; conditions: time 10.0 day
# Mus musculus [19] = test: Anti-alzheimer activity against scopolamine-induced cognitive dysfunction mouse model assessed as change in neuron damage in hippocampal CA3 region at 5 mg/kg, po measured after 10 days by Nissl staining based assay; format: functional, organism-based; conditions: time 10.0 day
smiles,measurement,setting,value
O=C(NCCc1c[nH]c2ccccc12)c1ccccc1OC(=O)N(Cc1ccccc1)Cc1ccccc1,IC50,Cholinesterase [1],15.4 µM
same,IC50,Acetylcholinesterase [2],> 100 µM
same,IC50,BV-2 [3],137 µM
same,IC50,HT-22,> 100 µM
O=S1(=O)OC(c2ccc(O)cc2)(c2ccc(O)cc2)c2ccccc21,inhibition,[4],34.8%
O=C(NCCc1c[nH]c2ccccc12)c1ccccc1OC(=O)N1CCOCC1,IC50,Cholinesterase [1],10 µM
same,IC50,Acetylcholinesterase [2],> 100 µM
same,IC50,BV-2 [3],82.8 µM
same,IC50,HT-22,97.7 µM
CCN(CC)C(=O)Oc1ccccc1C(=O)NCCc1c[nH]c2ccccc12,IC50,Cholinesterase [1],14 µM
same,IC50,Acetylcholinesterase [2],68.5 µM
same,IC50,BV-2 [3],32.1 µM
same,IC50,HT-22,57.2 µM
CN1c2ccc(OC(=O)NCC3CCCCC3)cc2[C@]2(C)CCN(CCc3ccccc3)[C@H]12,IC50,Acetylcholinesterase [5],0.0018 µM
same,IC50,Cholinesterase [6],0.0018 µM
O=C(NCCc1c[nH]c2ccccc12)c1ccccc1OC(=O)N1CCCCC1,IC50,Cholinesterase [1],> 100 µM
same,IC50,Acetylcholinesterase [2],> 100 µM
same,IC50,BV-2 [3],32.8 µM
same,IC50,HT-22,24.4 µM
CON(C)C(=O)Oc1ccc(C(=O)NCCc2c[nH]c3ccccc23)cc1,IC50,Cholinesterase [1],6.61 µM
same,IC50,Acetylcholinesterase [2],3.11 µM
same,IC50,BV-2 [3],30.3 µM
same,IC50,HT-22,> 100 µM
O=C(NCCc1c[nH]c2ccccc12)c1ccccc1O,IC50,Cholinesterase [1],15.9 µM
same,IC50,Acetylcholinesterase [2],23.2 µM
same,IC50,BV-2 [3],26.8 µM
same,IC50,HT-22,101 µM
same,inhibition,[4],19.6%
same,Activity,BV-2 [7],Active
same,Activity,BV-2 [8],Active
same,Activity,Mus musculus [9],Active
same,Activity,Mus musculus [10],Active
same,Activity,Mus musculus [11],Active
same,Activity,BV-2 [12],Active
same,Activity,BV-2 [13],Active
CN(C(=O)Oc1ccccc1C(=O)NCCc1c[nH]c2ccccc12)c1ccccc1,IC50,Cholinesterase [1],29.7 µM
same,IC50,Acetylcholinesterase [2],> 100 µM
same,IC50,BV-2 [3],20.6 µM
same,IC50,HT-22,48.5 µM
CCNC(=O)Oc1ccc2c(c1)[C@]1(C)CCOC1O2 (stereo partly specified),IC50,Acetylcholinesterase [5],0.006 µM
same,IC50,Cholinesterase [6],0.006 µM
O=C(NCCc1c[nH]c2ccccc12)c1ccccc1OC(=O)N1CCc2ccccc21,IC50,Cholinesterase [1],30 µM
same,IC50,Acetylcholinesterase [2],> 100 µM
same,IC50,BV-2 [3],137 µM
same,IC50,HT-22,> 100 µM
CN1CCN(C(=O)Oc2ccccc2C(=O)NCCc2c[nH]c3ccccc23)CC1,IC50,Cholinesterase [1],5.14 µM
same,IC50,Acetylcholinesterase [2],66 µM
same,IC50,BV-2 [3],49.7 µM
same,IC50,HT-22,92.7 µM
CCCN(CCC)C(=O)Oc1ccccc1C(=O)NCCc1c[nH]c2ccccc12,IC50,Cholinesterase [1],35.8 µM
same,IC50,Acetylcholinesterase [2],37.2 µM
same,IC50,BV-2 [3],0.33 µM
same,IC50,HT-22,25.4 µM
O=C(NCCc1c[nH]c2ccccc12)c1ccccc1OC(=O)N1CCC1,IC50,Cholinesterase [1],17 µM
same,IC50,Acetylcholinesterase [2],> 100 µM
same,IC50,BV-2 [3],33.3 µM
same,IC50,HT-22,40.1 µM
CON(C)C(=O)Oc1cccc(C(=O)NCCc2c[nH]c3ccccc23)c1,IC50,Cholinesterase [1],1.27 µM
same,IC50,Acetylcholinesterase [2],> 100 µM
same,IC50,BV-2 [3],12.4 µM
same,IC50,HT-22,48.3 µM
O=C(NCCc1c[nH]c2ccccc12)c1ccccc1OC(=O)N1CCSCC1,IC50,Cholinesterase [1],1.44 µM
same,IC50,Acetylcholinesterase [2],> 100 µM
same,IC50,BV-2 [3],1.53 µM
same,IC50,HT-22,> 100 µM
O=C(NCCc1c[nH]c2ccccc12)c1ccccc1OC(=O)N1CCCCCC1,IC50,Cholinesterase [1],24.1 µM
same,IC50,Acetylcholinesterase [2],> 100 µM
same,IC50,BV-2 [3],32.7 µM
same,IC50,HT-22,25.1 µM
CN1CC[C@@]2(C)c3cc(OC(=O)Nc4ccccc4)ccc3N(C)[C@@H]12 [PHENSERINE],IC50,Acetylcholinesterase [5],1.56 µM
CCCCN(CCCC)C(=O)Oc1ccccc1C(=O)NCCc1c[nH]c2ccccc12,IC50,Cholinesterase [1],8.01 µM
same,IC50,Acetylcholinesterase [2],34.9 µM
same,IC50,BV-2 [3],116 µM
same,IC50,HT-22,12.8 µM
O=C(NCCc1c[nH]c2ccccc12)c1ccccc1OC(=O)N1CCCC1,IC50,Cholinesterase [1],1.2 µM
same,IC50,Acetylcholinesterase [2],> 100 µM
same,IC50,BV-2 [3],56 µM
same,IC50,HT-22,64.3 µM
CNC(=O)Oc1ccc2c(c1)[C@]1(C)CCOC1N2C (stereo partly specified),IC50,Acetylcholinesterase [5],0.004 µM
CC(C)c1ccc(NC(=O)Oc2ccc3c(c2)[C@]2(C)CCOC2O3)cc1 (stereo partly specified),IC50,Cholinesterase [6],0.027 µM
O=C(NCCc1c[nH]c2ccccc12)c1ccccc1OC(=O)N(c1ccccc1)c1ccccc1,IC50,Cholinesterase [1],4.73 µM
same,IC50,Acetylcholinesterase [2],> 100 µM
same,IC50,BV-2 [3],126 µM
same,IC50,HT-22,> 100 µM
COc1cc2c(cc1OC)C(=O)C(CC1CCN(Cc3ccccc3)CC1)C2 (stereo unspecified) [DONEPEZIL],IC50,BV-2 [3],1.54 µM
same,IC50,HT-22,56.4 µM
same,Activity,BV-2 [14],Active
same,Activity,BV-2 [15],Active
same,Activity,BV-2 [16],Active
same,Activity,Mus musculus [17],Active
same,Activity,Mus musculus [18],Active
same,Activity,Mus musculus [19],Active
CN(C)C(=O)Oc1ccccc1C(=O)NCCc1c[nH]c2ccccc12,IC50,Cholinesterase [1],3.95 µM
same,IC50,Acetylcholinesterase [2],16.7 µM
same,IC50,BV-2 [3],35.2 µM
same,IC50,HT-22,75.4 µM
